We go through 28 compounds from patent US8431565B2 (priority 2007, dated 2013).

The assay addresses T1, rat CB2 receptor (rCB2) (Rattus norvegicus, UniProt Q9QZN9).
T1 sequence (Q9QZN9 1-360): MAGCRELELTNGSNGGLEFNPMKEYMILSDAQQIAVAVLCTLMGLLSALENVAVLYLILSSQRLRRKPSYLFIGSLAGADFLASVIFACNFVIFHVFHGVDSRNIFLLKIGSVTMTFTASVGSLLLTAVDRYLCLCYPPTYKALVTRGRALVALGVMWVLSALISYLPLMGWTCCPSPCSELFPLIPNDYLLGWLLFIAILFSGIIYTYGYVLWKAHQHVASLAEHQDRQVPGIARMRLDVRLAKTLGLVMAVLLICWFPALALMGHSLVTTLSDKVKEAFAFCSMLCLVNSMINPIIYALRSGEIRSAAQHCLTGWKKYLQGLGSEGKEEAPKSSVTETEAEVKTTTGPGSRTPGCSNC
For the compound `COC(=O)N1CCn2c(-c3ccccc3)nc(C(=O)N[C@@H](C)c3ccccc3)c2C1` [Compound 179, (S)-methyl 3-phenyl-1-(1-phenylethylcarbamoyl)-5,6-dihydroimidazo[1,5-a]pyrazine-7(8H)-carboxylate], the EC50 (as a rule, the concentration needed to bring the measured effect to its halfway point) lay in the range of 10 to 100 nM.

The compound `CNC(=O)[C@@H](NC(=O)c1nc(-c2cc(Cl)ccc2F)n2c1CN(C)CC2)C(C)(C)C` [Compound 246, (S)-3-(5-chloro-2-fluorophenyl)-N-(3,3-dimethyl-1-(methylamino)-1-oxobutan-2-yl)-7-methyl-5,6,7,8-tetrahydroimidazo[1,5-a]pyrazine-1-carboxamide] yielded an EC50 of 10 to 100 nM.

For the compound `C[C@@H](NC(=O)c1nc(-c2ccccc2)n2c1CN(C(=O)C(C)(C)C)CC2)C1CCCCC1` [Compound 133, (R)-N-(1-cyclohexylethyl)-3-phenyl-7-pivaloyl-5,6,7,8-tetrahydroimidazo[1,5-a]pyrazine-1-carboxamide], the EC50 lay in the range of 10 to 100 nM.

On to `CC(C)(C)OC(=O)N1CCn2c(-c3ccccc3)nc(C(=O)NC3C4(C)CCC(C4)C3(C)C)c2C1` (stereo not shown) [Compound 30, tert-butyl 3-phenyl-1-(1,3,3-trimethylbicyclo[2.2.1]heptan-2-ylcarbamoyl)-5,6-dihydroimidazo[1,5-a]pyrazine-7(8H)-carboxylate], for which the EC50 lay in the range of 10 to 100 nM.

For the compound `CCN1CCn2c(-c3ccccc3)nc(C(=O)N[C@H](C)C3CCCCC3)c2C1` [Compound 164, (R)-N-(1-cyclohexylethyl)-7-ethyl-3-phenyl-5,6,7,8-tetrahydroimidazo[1,5-a]pyrazine-1-carboxamide], the 50% effective concentration (EC50) was in the range of 10 to 100 nM.

With `CC(C)(C)OC(=O)N1CCn2c(-c3ccccc3)nc(C(=O)NC3CCCCC3)c2C1` [Compound 36, tert-butyl 1-(cyclohexylcarbamoyl)-3-phenyl-5,6-dihydroimidazo[1,5-a]pyrazine-7(8H)-carboxylate], the EC50 lay within 10 to 100 nM.

On to `CNC(=O)[C@@H](NC(=O)c1nc(-c2ccccc2)n2c1CN(S(=O)(=O)C1CC1)CC2)C(C)(C)C` [Compound 100, (S)-7-(cyclopropylsulfonyl)-N-(3,3-dimethyl-1-(methylamino)-1-oxobutan-2-yl)-3-phenyl-5,6,7,8-tetrahydroimidazo[1,5-a]pyrazine-1-carboxamide], for which the EC50 lay within 10 to 100 nM.

Compound `CNC(=O)[C@@H](NC(=O)c1nc(CCCC2CCCC2)n2c1CN(C)CCC2)C(C)(C)C` [Compound 494, (S)-3-(3-cyclopentylpropyl)-N-(3,3-dimethyl-1-(methylamino)-1-oxobutan-2-yl)-8-methyl-6,7,8,9-tetrahydro-5H-imidazo[1,5-a][1,4]diazepine-1-carboxamide] yielded an EC50 of 10 to 100 nM.

As to `Cc1ccc(-c2nc(C(=O)N[C@H](c3nc(C)no3)C(C)(C)C)c3n2CCCN(C)C3)c(F)c1` [Compound 522, (S)-N-(2,2-dimethyl-1-(3-methyl-1,2,4-oxadiazol-5-yl)propyl)-3-(2-fluoro-4-methylphenyl)-8-methyl-6,7,8,9-tetrahydro-5H-imidazo[1,5-a][1,4]diazepine-1-carboxamide], the EC50 lay within 10 to 100 nM.

In turn, `Cc1ccc(-c2nc(C(=O)N[C@H](c3nc(C)no3)C(C)(C)C)c3n2CCCN(C(=O)OC(C)(C)C)C3)c(F)c1` [Compound 518, (S)-tert-butyl 1-(2,2-dimethyl-1-(3-methyl-1,2,4-oxadiazol-5-yl)propylcarbamoyl)-3-(2-fluoro-4-methylphenyl)-6,7-dihydro-5H-imidazo[1,5-a][1,4]diazepine-8(9H)-carboxylate] gave an EC50 of 10 to 100 nM.

For the compound `COC(=O)[C@@H](NC(=O)c1nc(-c2ccc(C)cc2F)n2c1CNCCC2)C(C)(C)C` [Compound 466], the EC50 fell in the range of 10 to 100 nM.

`CC12CCC(C1)C(C)(C)C2NC(=O)c1nc(-c2ccccc2)n2c1CN(CCO)CC2` (stereo not shown) [Compound 143, 7-(2-hydroxyethyl)-3-phenyl-N-(1,3,3-trimethylbicyclo[2.2.1]heptan-2-yl)-5,6,7,8-tetrahydroimidazo[1,5-a]pyrazine-1-carboxamide] returned an EC50 of 10 to 100 nM.

For `C[C@@H](NC(=O)c1nc(-c2ccccc2)n2c1CN(C(=O)OC(C)(C)C)CC2)C1CCCCC1` [Compound 37, (R)-tert-butyl 1-(1-cyclohexylethylcarbamoyl)-3-phenyl-5,6-dihydroimidazo[1,5-a]pyrazine-7(8H)-carboxylate], the EC50 fell in the range of 10 to 100 nM.

`CNC(=O)[C@@H](NC(=O)c1nc(C2=CCC(C)CC2)n2c1CN(C)CC2)C(C)(C)C` (stereo partly drawn) [Compound 270, N-((S)-3,3-dimethyl-1-(methylamino)-1-oxobutan-2-yl)-7-methyl-3-(4-methylcyclohex-1-enyl)-5,6,7,8-tetrahydroimidazo[1,5-a]pyrazine-1-carboxamide] returned a concentration for a half-maximal effect (EC50) of 10 to 100 nM.

`Cc1ccc(-c2nc(C(=O)N[C@H](c3nc(C)no3)C(C)(C)C)c3n2CCCN(C(C)C)C3)c(F)c1` [Compound 523, (S)-N-(2,2-dimethyl-1-(3-methyl-1,2,4-oxadiazol-5-yl)propyl)-3-(2-fluoro-4-methylphenyl)-8-isopropyl-6,7,8,9-tetrahydro-5H-imidazo[1,5-a][1,4]diazepine-1-carboxamide]: the EC50 was 10 to 100 nM.

For `CCN1CCn2c(-c3ccccc3)nc(C(=O)NC3C4(C)CCC(C4)C3(C)C)c2C1` (stereo not shown) [Compound 144, 7-ethyl-3-phenyl-N-(1,3,3-trimethylbicyclo[2.2.1]heptan-2-yl)-5,6,7,8-tetrahydroimidazo[1,5-a]pyrazine-1-carboxamide], the EC50 is 0.1 to 10 nM.

Take `O=C(NC1CCCCC1)c1nc(-c2ccccc2)n2c1CN(CC1CCOC1)CC2` (stereo not shown) [Compound 141, N-cyclohexyl-3-phenyl-7-((tetrahydrofuran-3-yl)methyl)-5,6,7,8-tetrahydroimidazo[1,5-a]pyrazine-1-carboxamide]: the EC50 lay in the range of 10 to 100 nM.

`Cc1nnc([C@@H](NC(=O)c2nc(-c3ccccc3)n3c2CN(CC(C)C)CC3)C(C)(C)C)o1` [Compound 202, (S)-N-(2,2-dimethyl-1-(5-methyl-1,3,4-oxadiazol-2-yl)propyl)-7-isobutyl-3-phenyl-5,6,7,8-tetrahydroimidazo[1,5-a]pyrazine-1-carboxamide]: the EC50 fell in the range of 10 to 100 nM.

Compound `CC(C)CN1CCn2c(-c3ccccc3)nc(C(=O)N[C@@H](C)C(C)(C)C)c2C1` [Compound 53, (S)-N-(3,3-dimethylbutan-2-yl)-7-isobutyl-3-phenyl-5,6,7,8-tetrahydroimidazo[1,5-a]pyrazine-1-carboxamide] showed an EC50 of 10 to 100 nM.

`CNC(=O)[C@@H](NC(=O)c1nc(-c2ccc(Cl)cc2F)n2c1CN(C)CC2)C(C)(C)C` [Compound 241, (S)-3-(4-chloro-2-fluorophenyl)-N-(3,3-dimethyl-1-(methylamino)-1-oxobutan-2-yl)-7-methyl-5,6,7,8-tetrahydroimidazo[1,5-a]pyrazine-1-carboxamide] displayed an EC50 of 0.1 to 10 nM.

`CC(C)(C)CNC(=O)c1nc(-c2ccccc2)n2c1CN(S(=O)(=O)c1ccc(F)cc1)CC2` [Compound 103, 7-(4-fluorophenylsulfonyl)-N-neopentyl-3-phenyl-5,6,7,8-tetrahydroimidazo[1,5-a]pyrazine-1-carboxamide]: the EC50 is 10 to 100 nM.

As to `CNC(=O)[C@@H](NC(=O)c1nc(-c2ccccc2)n2c1CN(c1cccc(Cl)n1)CC2)C(C)(C)C` [Compound 299, (S)-7-(6-chloropyridin-2-yl)-N-(3,3-dimethyl-1-(methylamino)-1-oxobutan-2-yl)-3-phenyl-5,6,7,8-tetrahydroimidazo[1,5-a]pyrazine-1-carboxamide], the EC50 lay in the range of 10 to 100 nM.

For the compound `Cc1noc([C@@H](NC(=O)c2nc(-c3ccccc3)n3c2CN(CC(C)C)CC3)C(C)(C)C)n1` [Compound 90, (S)-N-(2,2-dimethyl-1-(3-methyl-1,2,4-oxadiazol-5-yl)propyl)-7-isobutyl-3-phenyl-5,6,7,8-tetrahydroimidazo[1,5-a]pyrazine-1-carboxamide], the EC50 lay within 0.1 to 10 nM.

Consider `CNC(=O)[C@@H](NC(=O)c1nc(-c2ccccc2)n2c1CN(C(C)C)CC2)C(C)(C)C` [Compound 85, (S)-N-(3,3-dimethyl-1-(methylamino)-1-oxobutan-2-yl)-7-isopropyl-3-phenyl-5,6,7,8-tetrahydroimidazo[1,5-a]pyrazine-1-carboxamide], for which the EC50 lay within 10 to 100 nM.

In the case of `CC(C)CN1CCn2c(-c3ccc(Cl)cc3)nc(C(=O)N[C@H](CO)C(C)(C)C)c2C1` [Compound 160, (S)-3-(4-chlorophenyl)-N-(1-hydroxy-3,3-dimethylbutan-2-yl)-7-isobutyl-5,6,7,8-tetrahydroimidazo[1,5-a]pyrazine-1-carboxamide], the EC50 was in the range of 0.1 to 10 nM.

Compound `CNC(=O)[C@@H](NC(=O)c1nc(-c2ccccc2)n2c1CN(S(=O)(=O)C(C)C)CC2)C(C)(C)C` [Compound 94, (S)-N-(3,3-dimethyl-1-(methylamino)-1-oxobutan-2-yl)-7-(isopropylsulfonyl)-3-phenyl-5,6,7,8-tetrahydrimidazo[1,5-a]pyrazine-1-carboxamide] had an EC50 of 10 to 100 nM.

The compound `CCN1CCn2c(-c3ccccc3)nc(C(=O)NCC3CCOCC3)c2C1` [Compound 168, 7-ethyl-3-phenyl-N-((tetrahydro-2H-pyran-4-yl)methyl)-5,6,7,8-tetrahydroimidazo[1,5-a]pyrazine-1-carboxamide] returned an EC50 of 10 to 100 nM.

Turning to `CNC(=O)[C@H](CC(C)C)NC(=O)c1nc(-c2ccc(Cl)cc2F)n2c1CN(C)CC2` [Compound 276, (S)-3-(4-chloro-2-fluorophenyl)-7-methyl-N-(4-methyl-1-(methylamino)-1-oxopentan-2-yl)-5,6,7,8-tetrahydroimidazo[1,5-a]pyrazine-1-carboxamide], the EC50 was in the range of 10 to 100 nM.
